Reference: ChEMBL document CHEMBL3991601, “The target landscape of clinical kinase drugs” (Science, 2017)
Calls of active or inactive are those of the source. For most assays here, no stated cut-off is given here; in the data, actives have a measured Kd and inactives only a lower limit.

Key:
[1] = target: T1, Serine/threonine-protein kinase ICK (Homo sapiens, UniProt Q9UPZ9)
T1 sequence (Q9UPZ9 whole entry): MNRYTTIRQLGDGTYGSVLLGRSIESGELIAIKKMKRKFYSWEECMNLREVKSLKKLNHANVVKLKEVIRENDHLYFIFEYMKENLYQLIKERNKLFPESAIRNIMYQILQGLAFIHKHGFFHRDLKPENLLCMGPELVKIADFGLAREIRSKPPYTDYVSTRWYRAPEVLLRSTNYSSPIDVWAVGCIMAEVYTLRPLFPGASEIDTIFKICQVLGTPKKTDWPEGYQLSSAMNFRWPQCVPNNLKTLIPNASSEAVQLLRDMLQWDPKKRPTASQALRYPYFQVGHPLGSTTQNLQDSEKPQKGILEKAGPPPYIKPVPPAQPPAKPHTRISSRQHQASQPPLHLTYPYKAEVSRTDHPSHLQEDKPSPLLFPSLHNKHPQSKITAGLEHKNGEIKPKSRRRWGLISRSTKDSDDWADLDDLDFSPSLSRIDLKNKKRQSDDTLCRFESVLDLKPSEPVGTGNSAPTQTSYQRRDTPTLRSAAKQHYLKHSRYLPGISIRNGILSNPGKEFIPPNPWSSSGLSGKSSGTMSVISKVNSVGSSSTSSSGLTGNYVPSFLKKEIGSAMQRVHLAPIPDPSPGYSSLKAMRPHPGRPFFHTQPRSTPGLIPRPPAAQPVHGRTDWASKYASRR

[2] = target: T2, Serine/threonine-protein kinase Nek1 (Homo sapiens, UniProt Q96PY6)
T2 sequence (Q96PY6 whole entry): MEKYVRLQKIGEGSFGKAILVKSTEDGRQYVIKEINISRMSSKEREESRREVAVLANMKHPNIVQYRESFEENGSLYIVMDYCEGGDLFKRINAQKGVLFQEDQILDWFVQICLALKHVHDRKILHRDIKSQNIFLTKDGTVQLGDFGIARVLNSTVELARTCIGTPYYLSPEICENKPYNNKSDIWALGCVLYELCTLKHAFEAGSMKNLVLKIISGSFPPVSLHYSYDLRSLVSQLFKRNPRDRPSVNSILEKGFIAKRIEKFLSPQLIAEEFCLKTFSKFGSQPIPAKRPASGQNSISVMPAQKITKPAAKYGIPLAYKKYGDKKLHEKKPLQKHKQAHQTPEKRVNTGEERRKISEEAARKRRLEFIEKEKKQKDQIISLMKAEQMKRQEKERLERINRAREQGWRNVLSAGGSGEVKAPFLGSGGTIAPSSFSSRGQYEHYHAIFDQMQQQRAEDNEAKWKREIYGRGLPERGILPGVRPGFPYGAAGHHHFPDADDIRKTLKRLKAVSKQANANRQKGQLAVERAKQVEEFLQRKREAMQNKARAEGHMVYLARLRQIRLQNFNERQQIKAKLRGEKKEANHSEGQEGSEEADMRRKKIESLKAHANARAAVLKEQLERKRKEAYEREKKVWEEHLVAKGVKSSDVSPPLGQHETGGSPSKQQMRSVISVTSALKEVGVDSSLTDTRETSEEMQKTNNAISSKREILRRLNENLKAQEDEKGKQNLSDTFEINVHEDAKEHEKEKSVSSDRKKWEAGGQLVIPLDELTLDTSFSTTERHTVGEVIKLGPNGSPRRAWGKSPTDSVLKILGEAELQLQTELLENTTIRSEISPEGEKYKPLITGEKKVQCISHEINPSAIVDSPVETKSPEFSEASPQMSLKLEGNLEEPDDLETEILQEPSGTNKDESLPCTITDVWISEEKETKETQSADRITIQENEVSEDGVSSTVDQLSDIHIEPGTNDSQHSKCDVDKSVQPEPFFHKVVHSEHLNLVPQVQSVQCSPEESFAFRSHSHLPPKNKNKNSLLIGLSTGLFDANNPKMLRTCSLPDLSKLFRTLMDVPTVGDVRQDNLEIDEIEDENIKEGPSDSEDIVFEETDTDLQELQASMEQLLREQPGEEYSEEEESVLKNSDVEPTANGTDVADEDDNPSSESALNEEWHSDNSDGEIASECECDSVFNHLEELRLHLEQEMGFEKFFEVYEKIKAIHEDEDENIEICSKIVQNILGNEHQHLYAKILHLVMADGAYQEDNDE

[3] = target: T3, Serine/threonine-protein kinase TBK1 (Homo sapiens, UniProt Q9UHD2)
T3 sequence (Q9UHD2 whole entry): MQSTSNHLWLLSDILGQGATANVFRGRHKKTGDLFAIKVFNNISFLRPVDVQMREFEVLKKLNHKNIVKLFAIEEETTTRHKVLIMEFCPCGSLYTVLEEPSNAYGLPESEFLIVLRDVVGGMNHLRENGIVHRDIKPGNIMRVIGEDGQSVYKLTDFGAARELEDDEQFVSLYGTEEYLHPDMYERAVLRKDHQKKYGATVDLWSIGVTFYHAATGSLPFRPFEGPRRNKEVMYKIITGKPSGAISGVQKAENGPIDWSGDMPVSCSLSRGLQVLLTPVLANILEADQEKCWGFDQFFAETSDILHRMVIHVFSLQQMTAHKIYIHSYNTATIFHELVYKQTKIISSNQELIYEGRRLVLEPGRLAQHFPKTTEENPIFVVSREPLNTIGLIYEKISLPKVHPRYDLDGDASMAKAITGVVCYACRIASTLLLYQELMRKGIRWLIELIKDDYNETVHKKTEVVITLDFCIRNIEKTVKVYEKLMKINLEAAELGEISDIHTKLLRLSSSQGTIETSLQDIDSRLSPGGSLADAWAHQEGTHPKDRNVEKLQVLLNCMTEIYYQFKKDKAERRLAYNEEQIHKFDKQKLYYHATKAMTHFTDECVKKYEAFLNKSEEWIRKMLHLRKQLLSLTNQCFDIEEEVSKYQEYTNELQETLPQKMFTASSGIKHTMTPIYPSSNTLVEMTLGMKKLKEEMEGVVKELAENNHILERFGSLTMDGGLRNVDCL

Structure (SMILES) | Kd [1] | Kd [2] | Kd [3]
N[C@@H]1CCCN(c2c(/C=C3\SC(=O)NC3=O)cccc2-c2ccccc2)C1 | > 30 µM (inactive) | > 30 µM (inactive) | > 30 µM (inactive)
Cc1ccc(S(=O)(=O)Nc2nc3ccccc3nc2Nc2ccc3nsnc3c2)cc1 | > 30 µM (inactive) | > 30 µM (inactive) | > 30 µM (inactive)
CN1CC[C@@H](c2c(O)cc(O)c3c(=O)cc(-c4ccccc4Cl)oc23)[C@@H]1CO | 0.892 µM (active) | > 30 µM (inactive) | > 30 µM (inactive)
Cc1cc(-c2cc(O)ccc2Cl)cc2nnc(Nc3ccc(OCCN4CCCC4)cc3)nc12 | > 30 µM (inactive) | > 30 µM (inactive) | > 30 µM (inactive)
CCN1CCN(Cc2ccc(-c3cc4c(N[C@H](C)c5ccccc5)ncnc4[nH]3)cc2)CC1 [AEE-788] | > 30 µM (inactive) | > 30 µM (inactive) | > 30 µM (inactive)
Cn1ncc(Cl)c1-c1cc(C(=O)N[C@H](CN)Cc2cccc(F)c2)sc1Cl [AFURESERTIB] |  | > 30 µM (inactive) | > 30 µM (inactive)
COc1cc(N2CCC(N3CCN(C)CC3)CC2)ccc1Nc1ncnc(Nc2ccccc2S(=O)(=O)C(C)C)n1 [ASP-3026] | > 30 µM (inactive) | > 30 µM (inactive) | > 30 µM (inactive)
CNS(=O)(=O)Nc1nccc(Cc2c(C)c3ccc(Oc4ncccn4)cc3oc2=O)c1F [AVUTOMETINIB] | > 30 µM (inactive) | > 30 µM (inactive) | > 30 µM (inactive)
COc1cc(CCc2cc(NC(=O)c3ccc(N4C[C@@H](C)N[C@@H](C)C4)cc3)n[nH]2)cc(OC)c1 [AZD-4547] | > 30 µM (inactive) | > 30 µM (inactive) | > 30 µM (inactive)
Cc1cc([C@@H](C)Nc2ccccc2C(=O)O)c2nc(N3CCOCC3)cc(=O)n2c1 [AZD-6482] | > 30 µM (inactive) | > 30 µM (inactive) | > 30 µM (inactive)
COc1ccc(-c2ccc3c(N4CCOC[C@@H]4C)nc(N4CCOC[C@@H]4C)nc3n2)cc1CO [AZD-8055] | > 30 µM (inactive) | > 30 µM (inactive) | > 30 µM (inactive)
C[C@@H](Nc1cc(F)cc(F)c1)c1cc(C(=O)N(C)C)cc2c(=O)cc(N3CCOCC3)oc12 [AZD-8186] | > 30 µM (inactive) | > 30 µM (inactive) | > 30 µM (inactive)
Cc1ccc(NC(=O)c2ccc(CN3CC[C@H](N(C)C)C3)c(C(F)(F)F)c2)cc1Nc1nccc(-c2cncnc2)n1 [BAFETINIB] | > 30 µM (inactive) | > 30 µM (inactive) | > 30 µM (inactive)
CCS(=O)(=O)N1CC(CC#N)(n2cc(-c3ncnc4[nH]ccc34)cn2)C1 [BARICITINIB] | > 30 µM (inactive) | > 30 µM (inactive) | > 30 µM (inactive)
Cc1cc2c(F)c(Oc3ncnn4cc(OC[C@@H](C)OC(=O)[C@H](C)N)c(C)c34)ccc2[nH]1 [BRIVANIB ALANINATE] | > 30 µM (inactive) | > 30 µM (inactive) | > 30 µM (inactive)
CNC(=O)c1ccc(-c2cnc3ncc(Cc4ccc5ncccc5c4)n3n2)cc1F [CAPMATINIB] | > 30 µM (inactive) | > 30 µM (inactive) | > 30 µM (inactive)

Structure (SMILES) | Kd [1] | Kd [2] | Kd [3]
O=C(c1ccc(F)c(F)c1Nc1ccc(I)cc1F)N1CC(O)([C@@H]2CCCCN2)C1 [COBIMETINIB] | > 30 µM (inactive) | > 30 µM (inactive) | > 30 µM (inactive)
Cc1nc(N)sc1-c1ccnc(Nc2ccc(N3CCOCC3)cc2)n1 [CYC-116] |  | 1.1 µM (active) | 
CCc1cnn2c(NCc3ccc[n+]([O-])c3)cc(N3CCCC[C@H]3CCO)nc12 [DINACICLIB] | 0.271 µM (active) | > 30 µM (inactive) | 
COC(=O)N[C@@H](C)CNc1nccc(-c2cn(C(C)C)nc2-c2cc(Cl)cc(NS(C)(=O)=O)c2F)n1 [ENCORAFENIB] | > 30 µM (inactive) | > 30 µM (inactive) | > 30 µM (inactive)
Cc1cc(Nc2cc(N3CCN(C)CC3)nc(/C=C/c3ccccc3)n2)n[nH]1 [ENMD-2076] | > 30 µM (inactive) | > 30 µM (inactive) | 
CO[C@H]1C[C@@H]2CC[C@@H](C)[C@@](O)(O2)C(=O)C(=O)N2CCCC[C@H]2C(=O)O[C@H]([C@H](C)C[C@@H]2CC[C@@H](OCCO)[C@H](OC)C2)CC(=O)[C@H](C)/C=C(\C)[C@@H](O)[C@@H](OC)C(=O)[C@H](C)C[C@H](C)/C=C/C=C/C=C/1C [EVEROLIMUS] |  | > 30 µM (inactive) | > 30 µM (inactive)
COCCNCc1ccc(-c2cc3nccc(Oc4ccc(NC(=S)NC(=O)Cc5ccc(F)cc5)cc4F)c3s2)nc1 [GLESATINIB] | > 30 µM (inactive) | > 30 µM (inactive) | > 30 µM (inactive)
O=C1NC(=O)/C(=C/c2ccc3nccc(-c4ccncc4)c3c2)S1 [GSK-1059615] | > 30 µM (inactive) | > 30 µM (inactive) | > 30 µM (inactive)
CC[C@H](Nc1ncnc2[nH]cnc12)c1nc2cccc(F)c2c(=O)n1-c1ccccc1 [IDELALISIB] | > 30 µM (inactive) | > 30 µM (inactive) | > 30 µM (inactive)
Cn1cc(-c2ccc3nnc(C(F)(F)c4ccc5ncccc5c4)n3n2)cn1 [JNJ-38877605] | > 30 µM (inactive) | > 30 µM (inactive) | > 30 µM (inactive)
COC(=O)[C@@]1(O)C[C@H]2O[C@]1(C)n1c3ccccc3c3c4c(c5c6ccccc6n2c5c31)C(=O)NC4 [K-252A] | > 30 µM (inactive) | > 30 µM (inactive) | 1.16 µM (active)
COc1cc2nccc(Oc3ccc(NC(=O)NC4CC4)c(Cl)c3)c2cc1C(N)=O [LENVATINIB] | > 30 µM (inactive) | > 30 µM (inactive) | > 30 µM (inactive)
Cc1c(F)cc(C(=O)NC2CC2)cc1-c1ccc(C(=O)NCC(C)(C)C)cn1 [LOSMAPIMOD] | > 30 µM (inactive) | > 30 µM (inactive) | > 30 µM (inactive)
Cn1cc(-c2ccc(F)c(C(F)(F)F)c2)nc1C1CCN(c2ncnc3[nH]ncc23)CC1 [LY-2584702] | > 30 µM (inactive) | > 30 µM (inactive) | > 30 µM (inactive)
OCCn1cc(-c2cnc3nnn(Cc4ccc5ncccc5c4)c3n2)cn1 [PF-04217903] | > 30 µM (inactive) | > 30 µM (inactive) | 
O=C(Nc1cccc(Cl)c1)Nc1ncc(CCNc2ncnc3ccsc23)s1 [SNS-314] | > 30 µM (inactive) | > 30 µM (inactive) | 
